Assay results as given in PubChem BioAssay AID624001 (Vanderbilt Specialized Chemistry Center, 2012).

Biological target: Phospholipase D1 (Homo sapiens) + Phospholipase D1 (Homo sapiens) (UniProt Q13393+Q13393)
Experiment: phospholipase D1 inhibition, isolated enzyme – biochemical, Lib32, assay 3A, dose response (AID 624001)
Conditions: purified PLD1 enzyme activity assay

Chain of Phospholipase D1 (Homo sapiens) + Phospholipase D1 (Homo sapiens) (Q13393 whole entry, looked up): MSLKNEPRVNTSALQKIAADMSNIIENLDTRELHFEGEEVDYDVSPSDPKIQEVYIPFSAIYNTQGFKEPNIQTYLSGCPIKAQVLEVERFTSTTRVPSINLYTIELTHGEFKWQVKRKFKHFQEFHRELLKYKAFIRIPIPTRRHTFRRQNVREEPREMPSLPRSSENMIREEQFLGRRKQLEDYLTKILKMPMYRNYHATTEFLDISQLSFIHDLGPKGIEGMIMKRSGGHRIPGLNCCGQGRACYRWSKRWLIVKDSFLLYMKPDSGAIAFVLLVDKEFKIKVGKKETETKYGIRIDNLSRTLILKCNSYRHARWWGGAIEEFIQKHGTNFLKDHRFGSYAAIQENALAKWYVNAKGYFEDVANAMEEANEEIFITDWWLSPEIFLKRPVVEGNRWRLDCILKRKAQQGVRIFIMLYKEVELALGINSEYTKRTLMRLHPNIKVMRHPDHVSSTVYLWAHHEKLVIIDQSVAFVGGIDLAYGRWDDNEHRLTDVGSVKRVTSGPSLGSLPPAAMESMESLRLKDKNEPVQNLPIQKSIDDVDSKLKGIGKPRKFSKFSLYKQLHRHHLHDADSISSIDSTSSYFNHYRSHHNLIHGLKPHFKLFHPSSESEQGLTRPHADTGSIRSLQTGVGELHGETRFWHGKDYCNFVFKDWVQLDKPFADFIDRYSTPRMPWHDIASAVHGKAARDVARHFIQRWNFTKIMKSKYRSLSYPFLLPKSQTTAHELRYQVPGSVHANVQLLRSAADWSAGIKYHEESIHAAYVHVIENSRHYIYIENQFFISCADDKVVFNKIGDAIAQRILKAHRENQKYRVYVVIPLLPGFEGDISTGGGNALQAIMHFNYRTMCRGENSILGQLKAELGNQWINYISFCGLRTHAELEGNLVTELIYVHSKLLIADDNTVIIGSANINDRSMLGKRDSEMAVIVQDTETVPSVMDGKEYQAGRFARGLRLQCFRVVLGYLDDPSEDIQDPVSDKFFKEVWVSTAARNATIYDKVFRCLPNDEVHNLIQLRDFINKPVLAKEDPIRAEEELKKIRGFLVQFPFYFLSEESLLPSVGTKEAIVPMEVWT
Chain of Phospholipase D1 (Homo sapiens) + Phospholipase D1 (Homo sapiens) (Q13393 whole entry, looked up): as above

COc1cc(C(=O)NCCN2CCC3(CC2)C(=O)NCN3c2cccc(F)c2)cc(OC)c1OC
IC50: 20 µM
